{"source": "ChEMBL document CHEMBL3632605", "about": "“Structure-guided discovery of 2-aryl/pyridin-2-yl-1H-indole derivatives as potent and selective hepsin inhibitors” (Bioorg Med Chem Lett, 2015)", "key": {"Serine protease hepsin": {"target": "Serine protease hepsin (Homo sapiens, UniProt P05981)", "sequence (P05981 1-162 limits assumed)": "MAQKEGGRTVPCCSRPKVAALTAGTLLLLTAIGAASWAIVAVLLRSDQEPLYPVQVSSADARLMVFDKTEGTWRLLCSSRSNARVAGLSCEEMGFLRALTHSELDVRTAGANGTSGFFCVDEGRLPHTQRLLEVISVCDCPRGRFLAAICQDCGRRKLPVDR", "sequence (P05981 163-417 limits assumed)": "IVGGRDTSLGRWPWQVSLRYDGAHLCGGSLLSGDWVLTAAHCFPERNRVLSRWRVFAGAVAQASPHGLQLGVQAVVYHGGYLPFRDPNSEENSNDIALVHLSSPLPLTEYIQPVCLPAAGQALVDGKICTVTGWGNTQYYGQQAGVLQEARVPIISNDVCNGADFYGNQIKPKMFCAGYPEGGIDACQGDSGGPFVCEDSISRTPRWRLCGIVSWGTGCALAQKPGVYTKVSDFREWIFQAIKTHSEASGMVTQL", "assay": "Inhibition of human recombinant hepsin by fluorescence based assay using 65 uM BOC-Gln-Arg-Arg -AMC as substrate"}, "[1]": {"assay": "Aqueous solubility of compound at pH 7.4 by HPLC-UV/Vis analysis", "format": "physicochemical", "details": "aqueous medium"}, "[2]": {"target": "T1, Suppressor of tumorigenicity 14 protein (Homo sapiens, UniProt Q9Y5Y6)", "T1 sequence (Q9Y5Y6 whole entry)": "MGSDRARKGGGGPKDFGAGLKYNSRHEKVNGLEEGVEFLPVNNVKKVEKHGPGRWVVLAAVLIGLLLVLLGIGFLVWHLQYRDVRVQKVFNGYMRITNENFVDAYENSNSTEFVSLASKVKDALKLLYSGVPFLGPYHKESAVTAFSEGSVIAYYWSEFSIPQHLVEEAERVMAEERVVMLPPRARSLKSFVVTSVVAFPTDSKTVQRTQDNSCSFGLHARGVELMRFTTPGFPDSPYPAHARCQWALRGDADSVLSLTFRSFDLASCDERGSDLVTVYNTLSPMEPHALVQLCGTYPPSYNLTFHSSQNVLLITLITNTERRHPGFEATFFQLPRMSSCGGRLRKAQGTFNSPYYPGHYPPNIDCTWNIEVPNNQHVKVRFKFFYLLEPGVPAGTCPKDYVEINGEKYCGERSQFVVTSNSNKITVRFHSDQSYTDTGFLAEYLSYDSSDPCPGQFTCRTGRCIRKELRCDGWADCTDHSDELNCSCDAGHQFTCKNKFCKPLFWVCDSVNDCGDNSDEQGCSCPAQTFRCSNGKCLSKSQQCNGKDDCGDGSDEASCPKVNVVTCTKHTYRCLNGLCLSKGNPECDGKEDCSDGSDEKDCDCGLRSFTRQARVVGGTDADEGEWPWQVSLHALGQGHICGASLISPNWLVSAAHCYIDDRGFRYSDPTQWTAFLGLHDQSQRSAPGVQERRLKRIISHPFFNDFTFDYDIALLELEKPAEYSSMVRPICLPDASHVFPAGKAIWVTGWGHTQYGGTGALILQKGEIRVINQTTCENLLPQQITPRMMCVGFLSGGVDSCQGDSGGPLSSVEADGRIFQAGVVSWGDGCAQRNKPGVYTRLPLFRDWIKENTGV", "assay": "Inhibition of human recombinant matriptase by fluorescence based assay using 20 uM Boc-Gln-Ala-Arg-7-amido-4-methyl coumarinhydrobromide as substrate"}, "PC-3 [3]": {"tested_on": "PC-3", "assay": "Cytotoxicity against human PC3 cells at 10 uM after 72 hrs by calcein AM assay", "format": "cell-based", "details": "pc-3, 72 h"}, "PC-3 [4]": {"tested_on": "PC-3", "assay": "Antimigratory activity in human PC3 cells by transwell-chamber assay", "format": "functional, cell-based"}, "[5]": {"assay": "Stability in mouse liver microsomes assessed as compound remaining at 1 uM after 40 mins by LC-MS/MS analysis", "format": "ADME", "details": "read-out: Stability"}, "[6]": {"assay": "Stability in mouse liver microsomes assessed as compound remaining at 1 uM after 20 mins by LC-MS/MS analysis", "format": "ADME", "details": "read-out: Stability"}, "[7]": {"target": "Urokinase-type plasminogen activator (Homo sapiens, UniProt P00749)", "assay": "Inhibition of human uPA by fluorescence based assay using L-PyroGlu-Gly-Arg-pNA.HCl as substrate"}, "[8]": {"assay": "Antimigratory activity in human LNCaP-C42B4 cells by transwell-chamber assay", "format": "functional, cell-based"}, "[9]": {"assay": "Cytotoxicity against human LNCaP-C42B4 cells at 10 uM after 72 hrs by calcein AM assay", "format": "cell-based", "details": "lncap-c42b4, 72 h"}, "Trypsin": {"target": "Trypsin (Homo sapiens, UniProt P07477+P07478+P35030)", "assay": "Inhibition of human trypsin by fluorescence based assay using 25 uM Boc-Gln-Ala-Arg-7-amido-4-methyl coumarinhydrobromide as substrate", "format": "protein assay"}, "PC-3 [10]": {"tested_on": "PC-3", "assay": "Antinvasive activity in human PC3 cells by matrigel assay", "format": "functional, cell-based"}, "[11]": {"assay": "Antinvasive activity in human LNCaP-C42B4 cells by matrigel assay", "format": "functional, cell-based"}, "Prothrombin": {"target": "Prothrombin (Homo sapiens, UniProt P00734)", "assay": "Inhibition of human thrombin by fluorescence based assay using 100 uM Boc-Gln-Ala-Arg-7-amido-4-methyl coumarinhydrobromide as substrate"}, "[12]": {"target": "Plasminogen (Homo sapiens) (UniProt P00747)", "sequence (P00747 97-580 limits assumed)": "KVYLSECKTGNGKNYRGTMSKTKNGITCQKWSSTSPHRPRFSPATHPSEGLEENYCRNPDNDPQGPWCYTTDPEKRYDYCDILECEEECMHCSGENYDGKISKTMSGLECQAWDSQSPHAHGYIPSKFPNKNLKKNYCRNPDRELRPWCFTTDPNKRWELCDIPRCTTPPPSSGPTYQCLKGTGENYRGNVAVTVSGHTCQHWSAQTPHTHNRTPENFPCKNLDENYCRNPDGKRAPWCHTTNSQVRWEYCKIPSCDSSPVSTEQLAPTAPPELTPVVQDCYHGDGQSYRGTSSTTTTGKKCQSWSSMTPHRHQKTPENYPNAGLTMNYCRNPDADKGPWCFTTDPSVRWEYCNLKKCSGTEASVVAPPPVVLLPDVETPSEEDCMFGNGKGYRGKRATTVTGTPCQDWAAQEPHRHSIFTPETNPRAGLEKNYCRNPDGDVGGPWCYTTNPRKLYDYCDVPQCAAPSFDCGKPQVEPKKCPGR", "sequence (P00747 581-810 limits assumed)": "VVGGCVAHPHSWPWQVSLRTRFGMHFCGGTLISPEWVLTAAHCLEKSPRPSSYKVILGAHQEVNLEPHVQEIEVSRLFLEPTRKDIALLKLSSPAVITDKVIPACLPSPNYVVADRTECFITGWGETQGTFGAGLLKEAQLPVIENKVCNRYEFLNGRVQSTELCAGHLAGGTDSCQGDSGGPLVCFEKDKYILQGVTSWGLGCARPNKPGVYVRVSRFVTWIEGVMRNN", "assay": "Inhibition of human plasmin at 5 uM by fluorescence based assay using pyroGlu-Phe-Lys-pNA.HCl as substrate"}, "Coagulation factor X": {"target": "Coagulation factor X (Bos taurus, UniProt P00743)", "sequence (P00743 41-180 limits assumed)": "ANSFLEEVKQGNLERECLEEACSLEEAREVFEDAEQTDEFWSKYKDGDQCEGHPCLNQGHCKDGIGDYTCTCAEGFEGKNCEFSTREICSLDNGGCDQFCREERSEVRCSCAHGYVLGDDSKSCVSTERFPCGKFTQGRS", "sequence (P00743 234-492 limits assumed)": "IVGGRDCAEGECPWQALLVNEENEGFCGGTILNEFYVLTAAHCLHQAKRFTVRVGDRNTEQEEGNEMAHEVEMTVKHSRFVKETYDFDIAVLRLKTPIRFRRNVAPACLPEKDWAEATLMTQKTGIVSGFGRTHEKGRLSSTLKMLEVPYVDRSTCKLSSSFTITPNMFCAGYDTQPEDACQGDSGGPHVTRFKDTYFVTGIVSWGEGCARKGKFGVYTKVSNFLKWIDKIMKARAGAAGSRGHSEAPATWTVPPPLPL", "assay": "Inhibition of bovine factor 10a by fluorescence based assay using CH3OCO-D-CHA-Gly-Arg-pNA.AcoH as substrate"}}}
{"compound": "N=C(N)c1ccc2[nH]c(-c3cccc(N4CCCCC4)n3)cc2c1", "values": [{"measurement": "Ki", "setting": "Serine protease hepsin", "result": 0.6, "unit": "µM"}, {"measurement": "solubility", "setting": "[1]", "result": 135, "unit": "µM"}, {"measurement": "Ki", "setting": "[2]", "result": 1.5, "unit": "µM"}, {"measurement": "Activity", "setting": "PC-3 [3]", "result": 10, "unit": "%"}, {"measurement": "EC50", "setting": "PC-3 [4]", "result": 5.2, "unit": "µM"}, {"measurement": "remaining at 40 min, 1 µM", "setting": "[5]", "result": 60, "unit": "%"}, {"measurement": "remaining at 20 min, 1 µM", "setting": "[6]", "result": 82, "unit": "%"}, {"measurement": "Ki", "setting": "[7]", "result": 2.3, "unit": "µM"}, {"measurement": "EC50", "setting": "[8]", "result": 2.6, "unit": "µM"}, {"measurement": "Activity", "setting": "[9]", "result": 12, "unit": "%"}]}
{"compound": "N=C(N)c1ccc2[nH]c(-c3ccccc3O)cc2c1", "values": [{"measurement": "Ki", "setting": "Serine protease hepsin", "result": 35, "unit": "µM"}, {"measurement": "Ki", "setting": "[2]", "result": 60, "unit": "µM"}, {"measurement": "Ki", "setting": "Trypsin", "result": 8, "unit": "µM"}]}
{"compound": "N=C(N)c1ccc2[nH]c(-c3cccc(C4(O)CCCCC4)[n+]3[O-])cc2c1", "values": [{"measurement": "EC50", "setting": "PC-3 [10]", "result": 2.1, "unit": "µM"}, {"measurement": "Ki", "setting": "Serine protease hepsin", "result": 0.1, "unit": "µM"}, {"measurement": "solubility", "setting": "[1]", "result": 200, "unit": "µM"}, {"measurement": "Ki", "setting": "[2]", "result": 1.1, "unit": "µM"}, {"measurement": "EC50", "setting": "[11]", "result": 0.5, "unit": "µM"}, {"measurement": "Ki", "setting": "Prothrombin", "result": 8.6, "unit": "µM"}, {"measurement": "inhibition", "setting": "[12]", "result": 11, "unit": "%"}, {"measurement": "Activity", "setting": "PC-3 [3]", "result": 8, "unit": "%"}, {"measurement": "Ki", "setting": "Coagulation factor X", "result": 8.2, "unit": "µM"}, {"measurement": "Ki", "setting": "Trypsin", "result": 0.8, "unit": "µM"}, {"measurement": "EC50", "setting": "PC-3 [4]", "result": 1.8, "unit": "µM"}, {"measurement": "remaining at 40 min, 1 µM", "setting": "[5]", "result": 99, "unit": "%"}, {"measurement": "remaining at 20 min, 1 µM", "setting": "[6]", "result": 100, "unit": "%"}, {"measurement": "Ki", "setting": "[7]", "result": 7.8, "unit": "µM"}, {"measurement": "EC50", "setting": "[8]", "result": 0.6, "unit": "µM"}, {"measurement": "Activity", "setting": "[9]", "result": 1, "unit": "%"}]}
{"compound": "N=C(N)c1ccc2[nH]c(-c3cccc(C4(F)CCCCC4)n3)cc2c1", "values": [{"measurement": "Ki", "setting": "Serine protease hepsin", "result": 0.4, "unit": "µM"}, {"measurement": "Ki", "setting": "[2]", "result": 0.8, "unit": "µM"}, {"measurement": "Ki", "setting": "Prothrombin", "result": 3.6, "unit": "µM"}, {"measurement": "inhibition", "setting": "[12]", "result": 11, "unit": "%"}, {"measurement": "Ki", "setting": "Coagulation factor X", "result": 0.7, "unit": "µM"}, {"measurement": "Ki", "setting": "Trypsin", "result": 0.5, "unit": "µM"}, {"measurement": "Ki", "setting": "[7]", "result": 2.7, "unit": "µM"}]}
{"compound": "N=C(N)c1ccc2[nH]c(-c3ccccc3O)nc2c1", "values": [{"measurement": "Ki", "setting": "Serine protease hepsin", "result": 40, "unit": "µM"}, {"measurement": "Ki", "setting": "Coagulation factor X", "result": 14, "unit": "µM"}, {"measurement": "Ki", "setting": "Trypsin", "result": 23, "unit": "µM"}]}
{"compound": "N=C(N)c1ccc2[nH]ccc2c1", "values": [{"measurement": "Ki", "setting": "Serine protease hepsin", "result": 500, "unit": "µM"}]}
{"compound": "CC(C)c1cc(Cl)cc(-c2cc3cc(C(=N)N)ccc3[nH]2)c1O", "values": [{"measurement": "Ki", "setting": "Serine protease hepsin", "result": 4.8, "unit": "µM"}, {"measurement": "Ki", "setting": "[2]", "result": 4.8, "unit": "µM"}, {"measurement": "inhibition", "setting": "[12]", "result": 5, "unit": "%"}]}
{"compound": "CC(C)c1cccc(-c2cc3cc(C(=N)N)ccc3[nH]2)c1O", "values": [{"measurement": "Ki", "setting": "Serine protease hepsin", "result": 4.9, "unit": "µM"}, {"measurement": "Ki", "setting": "[2]", "result": 4.4, "unit": "µM"}, {"measurement": "Ki", "setting": "Prothrombin", "result": 1.9, "unit": "µM"}, {"measurement": "Ki", "setting": "Coagulation factor X", "result": 1, "unit": "µM"}, {"measurement": "Ki", "setting": "Trypsin", "result": 0.8, "unit": "µM"}]}
{"compound": "N=C(N)c1ccc2[nH]c(-c3cccc(N4CCCCC4)c3O)cc2c1", "values": [{"measurement": "Ki", "setting": "Serine protease hepsin", "result": 1.4, "unit": "µM"}, {"measurement": "solubility", "setting": "[1]", "result": 126, "unit": "µM"}, {"measurement": "Ki", "setting": "[2]", "result": 0.5, "unit": "µM"}, {"measurement": "Activity", "setting": "PC-3 [3]", "result": 22, "unit": "%"}, {"measurement": "EC50", "setting": "PC-3 [4]", "result": 4.9, "unit": "µM"}, {"measurement": "remaining at 40 min, 1 µM", "setting": "[5]", "result": 22, "unit": "%"}, {"measurement": "remaining at 20 min, 1 µM", "setting": "[6]", "result": 38, "unit": "%"}, {"measurement": "EC50", "setting": "[8]", "result": 4.2, "unit": "µM"}, {"measurement": "Activity", "setting": "[9]", "result": 18, "unit": "%"}]}
{"compound": "N=C(N)c1ccc2[nH]c(-c3cccc(C4(O)CCCCC4)n3)cc2c1", "values": [{"measurement": "EC50", "setting": "PC-3 [10]", "result": 3.5, "unit": "µM"}, {"measurement": "Ki", "setting": "Serine protease hepsin", "result": 0.1, "unit": "µM"}, {"measurement": "solubility", "setting": "[1]", "result": 148, "unit": "µM"}, {"measurement": "Ki", "setting": "[2]", "result": 2.1, "unit": "µM"}, {"measurement": "EC50", "setting": "[11]", "result": 0.6, "unit": "µM"}, {"measurement": "Ki", "setting": "Prothrombin", "result": 2.1, "unit": "µM"}, {"measurement": "inhibition", "setting": "[12]", "result": 24, "unit": "%"}, {"measurement": "Activity", "setting": "PC-3 [3]", "result": 10, "unit": "%"}, {"measurement": "Ki", "setting": "Coagulation factor X", "result": 1.4, "unit": "µM"}, {"measurement": "Ki", "setting": "Trypsin", "result": 0.4, "unit": "µM"}, {"measurement": "EC50", "setting": "PC-3 [4]", "result": 2.6, "unit": "µM"}, {"measurement": "remaining at 40 min, 1 µM", "setting": "[5]", "result": 64, "unit": "%"}, {"measurement": "remaining at 20 min, 1 µM", "setting": "[6]", "result": 86, "unit": "%"}, {"measurement": "Ki", "setting": "[7]", "result": 1.3, "unit": "µM"}, {"measurement": "EC50", "setting": "[8]", "result": 0.9, "unit": "µM"}, {"measurement": "Activity", "setting": "[9]", "result": 8, "unit": "%"}]}
